Tested on: S. epidermis (ATCC 12228)
Assay: Growth of S. epidermidis under aerobic conditions, time-to-detection (BacT/Alert 3D system)
Type: cell-based, Staphylococcus epidermidis
Details: S. epidermidis inoculated at 1000 CFU/mL in standard aerobic bottles; test material in PBS; average of three samples; PBS control = 100
Excerpt: The ability of four test materials to grow S. epidermis (ATCC 12228) under aerobic conditions was investigated. The materials were: 1) phosphate buffered saline buffer solution (PBS), 2) PBS containing 5% of an aqueous solution containing 0.13 weight percent of an extract of Pichia anomala grown on kiwi, 3) PBS containing 3% glycerol, and 4) PBS containing both 5% of an aqueous solution containing 0.13 weight percent of an extract of Pichia anomala grown on kiwi and 3% glycerol. The BacT/Alert 3D system (BioMerieux Inc.) was used to determine the time-to-detection (“TTD”) of S. epidermidis according to the manufacturer's instruction. S. epidermidis were inoculated at concentrations of 1000 colony-forming units (CFU)/mL into standard aerobic bottles (BioMerieux Inc.). The test materials were prepared in PBS and injected into the standard aerobic bottles at the indicated final concentration with the volume of 1 ml. Standard aerobic bottles inoculated with S. epidermidis only and 10 ml of PBS was used as control. Bottles were then inserted into the BacT/Alert 3D system until stationary growth phase. The TTD values were automatically calculated by the BacT/Alert 3D according to the growth algorism. Three samples were tested for each test material and the resulted were averaged. Relative Time-to-Detection (RTTD) was calculated as (TTD treatment-TTD control)/TTD control*100.

OCC(O)CO [3% Glycerol, glycerol]
RTTD (Relative Time-to-Detection): 92.56

From patent US10543240B2, “Topical composition containing glycerin and yeast extract” (Johnson & Johnson Consumer Inc., priority 2016, dated 2020)
